From the supplement of paper PMC10307832

Columns and labels:
Assay in all cases: relative viability (nuclei count vs DMSO), 5 days (fraction); higher = more cells survive
[1] = compound: CC(C)N(CCCNC(=O)Nc1ccc(C(C)(C)C)cc1)C[C@H]1O[C@@H](n2ccc3c(N)ncnc32)[C@H](O)[C@@H]1O + Nc1ncn([C@H]2C[C@H](O)[C@@H](CO)O2)c(=O)n1 [Decitabine] (partner 2 µM)
Method in brief: (§1)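 Dosing by pin tool came one day after lung cancer cell lines were seeded in 1536-well plates, using either one drug or a fixed anchor-drug dose plus five library-drug doses (not always all listed) in √10 steps. After 5 days, nuclei were counted on 4× images. Relative viability is treated-well nuclei count divided by vehicle-well nuclei count, and values are medians of duplicate plates.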

[2] = compound: CC(C)N(CCCNC(=O)Nc1ccc(C(C)(C)C)cc1)C[C@H]1O[C@@H](n2ccc3c(N)ncnc32)[C@H](O)[C@@H]1O + CC(=O)c1c(C)c2cnc(Nc3ccc(N4CCNCC4)cn3)nc2n(C2CCCC2)c1=O [Palbociclib] (partner 0.5 µM)
Method in brief: as §1

[3] = compound: CC(C)=CC[C@@H](O)C1=CC(=O)c2c(O)ccc(O)c2C1=O [Shikonin] + C[C@@H](Oc1cc(-c2cnn(C3CCNCC3)c2)cnc1N)c1c(Cl)ccc(F)c1Cl [Crizotinib] (partner 1 µM)
Method in brief: as §1

[4] = compound: CC(C)=CC[C@@H](O)C1=CC(=O)c2c(O)ccc(O)c2C1=O [Shikonin] + C[C@]1(O)C[C@@H](c2nc(-c3ccc4ccc(-c5ccccc5)nc4c3)c3c(N)nccn32)C1 [Linsitinib] (partner 1 µM)
Method in brief: as §1

Cell Line | relative viability ([1]; first compound 0.08 µM) | relative viability ([1]; first compound 0.253 µM) | relative viability ([1]; first compound 0.8 µM) | relative viability ([1]; first compound 2.53 µM) | relative viability ([1]; first compound 8 µM) | relative viability ([2]; first compound 0.08 µM) | relative viability ([2]; first compound 0.253 µM) | relative viability ([2]; first compound 0.8 µM) | relative viability ([2]; first compound 2.53 µM) | relative viability ([2]; first compound 8 µM) | relative viability ([3]; first compound 0.01 µM) | relative viability ([3]; first compound 0.1 µM) | relative viability ([3]; first compound 0.3162 µM) | relative viability ([3]; first compound 1 µM) | relative viability ([4]; first compound 0.01 µM) | relative viability ([4]; first compound 0.1 µM) | relative viability ([4]; first compound 0.3162 µM) | relative viability ([4]; first compound 1 µM)
LCLC-97TM1 | 0.215 | 0.305 | 0.243 | 0.242 | 0.194 | 0.195 | 0.247 | 0.218 | 0.236 | 0.252 | 0.573 | 0.46 | 0.3 | 0.247 | 0.175 | 0.176 | 0.173 | 0.162
LCLC-103H | 0.688 | 0.719 | 0.666 | 0.716 | 0.68 | 0.488 | 0.47 | 0.438 | 0.482 | 0.459 | 0.953 | 1 | 1.13 | 1.06 | 1.03 | 1.21 | 1.26 | 1.23
LK-2 | 0.308 | 0.293 | 0.388 | 0.325 | 0.22 | – | 0.665 | 0.845 | 0.775 | 0.622 | 0.248 | 0.212 | 0.219 | 0.221 | 0.589 | 0.539 | 0.527 | 0.473
LOU-NH91 | 0.757 | 0.815 | – | 0.858 | 0.793 | 0.538 | 0.503 | – | 0.53 | 0.611 | 0.737 | 0.686 | 0.775 | 0.737 | 0.904 | 0.999 | 1.06 | 0.974
LU99A | 0.802 | 0.92 | 0.895 | 0.919 | 0.991 | 0.399 | 0.387 | 0.436 | 0.427 | 0.405 | 0.545 | 0.688 | 0.599 | 0.465 | 0.573 | 0.522 | 0.525 | 0.536
LXF-289 | 0.329 | 0.39 | 0.396 | 0.378 | 0.336 | 0.705 | 0.591 | 0.6 | 0.656 | 0.652 | 0.856 | 0.825 | 0.773 | 0.844 | 1.07 | 0.911 | 1 | 0.996
NCI-H23 | 0.311 | – | 0.327 | 0.298 | 0.331 | 0.517 | – | 0.506 | 0.48 | 0.446 | 0.576 | 0.489 | 0.515 | 0.502 | 0.592 | 0.489 | 0.696 | 0.533
NCI-H322M | 0.698 | 0.695 | 0.723 | 0.689 | 0.641 | 0.481 | 0.488 | 0.494 | 0.489 | 0.532 | 0.866 | 0.997 | 0.855 | 0.882 | 0.919 | 0.837 | 0.993 | 1.13
NCI-H358 | 0.233 | 0.187 | 0.212 | 0.214 | 0.189 | 0.121 | 0.127 | 0.143 | 0.135 | 0.132 | 0.699 | 0.484 | 0.619 | 0.63 | 0.916 | 0.688 | 0.857 | 0.511
NCI-H441 | 0.278 | 0.251 | – | 0.218 | 0.252 | 0.203 | 0.186 | – | 0.237 | 0.216 | 0.921 | 0.782 | 0.887 | 0.771 | 0.618 | 0.573 | 0.578 | 0.516
NCI-H460 | 0.484 | 0.488 | 0.455 | 0.435 | 0.414 | 0.207 | 0.201 | 0.139 | 0.181 | 0.111 | 1.37 | 1.38 | 1.26 | 0.884 | 0.914 | 0.819 | 0.992 | 0.904
NCI-H520 | 0.531 | 0.469 | 0.405 | 0.471 | 0.492 | 0.237 | 0.196 | 0.191 | 0.226 | 0.25 | – | 0.878 | 0.608 | 0.842 | – | 1.11 | 1.07 | 1.07
NCI-H647 | 0.419 | 0.374 | 0.363 | 0.336 | 0.392 | 0.35 | 0.396 | 0.3 | 0.406 | 0.421 | 1.13 | 1.29 | 0.931 | 1.01 | 1.01 | 1.37 | 1.51 | 1.32
NCI-H650 | 0.338 | 0.372 | 0.335 | 0.315 | 0.324 | 0.349 | 0.339 | 0.323 | 0.319 | 0.348 | 0.818 | – | 0.643 | 0.804 | 0.975 | – | 0.843 | 0.845
NCI-H661 | 0.521 | 0.469 | 0.542 | 0.577 | 0.623 | 0.395 | 0.437 | 0.45 | 0.423 | 0.423 | 1.24 | 1.11 | 0.967 | 0.957 | 0.724 | 0.575 | 0.656 | 0.546
NCI-H727 | 0.907 | 0.687 | 0.885 | 0.905 | 0.973 | 0.694 | 0.578 | 0.769 | 0.82 | 0.62 | 1.02 | 0.991 | 0.727 | 0.589 | 0.165 | 0.252 | 0.319 | 0.314
NCI-H838 | 0.454 | 0.431 | 0.491 | 0.483 | 0.511 | 0.217 | 0.178 | 0.182 | 0.247 | 0.251 | 0.898 | 0.967 | 0.898 | 0.99 | 1.05 | 1.08 | 1.07 | 1.03
NCI-H1355 | 0.338 | 0.342 | 0.414 | 0.335 | 0.342 | 0.379 | 0.427 | 0.363 | 0.386 | 0.392 | 1.16 | 1.31 | 1.19 | 1.12 | 0.764 | 0.943 | 0.887 | 0.855
